Measured values taken from a melting point compilation (Tetko et al.).

melting point [°C]	SMILES
90 to 92	O=C(CCl)NCCc1nc2ccccc2s1
97 to 99	CC(C)C(C(=O)O)N1CCCS1(=O)=O (centres undefined)
90 to 92	COc1cccc(C2CC2C(=O)O)c1 (centres undefined)
152 to 154	CC(NC(=O)c1cccc(Cl)c1Cl)C(=O)O (centres undefined)
158 to 160	COC(=O)[C@@H]1C[C@@H](O)CN1C(=O)C12CC3CC(CC(C3)C1)C2
223 to 225	CCC1=C(C(=O)O)Cc2ccccc2O1
110 to 112	COC(=O)c1cc(S(=O)(=O)Cl)c(Cl)cc1Cl
34 to 36	NCC(O)C1CC1 (centres undefined)
55 to 57	NCc1nnc2n1CC(C(F)(F)F)CC2 (centres undefined)
147 to 149	Nc1c[nH]nc1-c1ccccc1
54 to 56	COC(=O)c1ccc(S(=O)(=O)Cl)cc1C
327 to 329	O=c1[nH]cnc2cc(-c3ccc(Cl)cc3)sc12
225 to 227	Cc1nc(C(=O)O)nn1-c1nnc[nH]1
170 to 172	O=C(O)C1(c2ccc(O)cc2)CCOCC1
79 to 81	CNc1ccnc(C)n1
143 to 145	NC(=O)c1ccccc1N1CCC(N)CC1
186 to 188	Cc1ccc(N)cc1S(=O)(=O)N1CCOCC1
157 to 159	Cc1ccc(C)c(-n2nnnc2SCC(=O)O)c1
96 to 98	Cc1ncsc1-c1cnco1
101 to 103	COc1ccc(/C=N/OCC(=O)O)cc1
30 to 32	CCC(=O)c1ccccc1OC(F)F
171 to 173	CCn1c(S)nnc1-c1ccccc1OC
52 to 55	COC(=O)c1nnc2c(Cl)cccn12
295 to 297	O=C(O)c1ccc2nc(S)oc2c1

melting point [°C]	SMILES
156 to 158	O=C(c1ccccc1)c1ccc(OC(F)F)cc1
147 to 149	CC(C)(C)OC(=O)c1cccc(C(=O)O)c1
94 to 96	CCC1(C(=O)O)CCN(C(=O)OC(C)(C)C)C1 (centres undefined)
165 to 167	Clc1cc(C2=NCCN2)ccn1
239 to 241	Cc1ccc2c(c1)C(=O)N(CCCC(=O)O)C2=O
49 to 51	CCOC(=O)c1n[nH]c(C(O)c2ccccc2)n1 (centres undefined)
110 to 112	O=C(O)CCc1cc2ccccc2o1
109 to 111	O=C(O)c1ccccc1C(=O)N1CCCCC1
167 to 169	CC(NC(N)=O)C1CC2CCC1C2 (centres undefined)
199 to 201	O=[N+]([O-])c1ccc(O)nc1Cl
156 to 158	O=C(O)C1(c2ccc(F)cc2)CCOCC1
74 to 76	CN1CCN(C(=O)c2ccccc2N)CC1
157 to 159	Cc1ccc(-n2c(C)ccc2C)c(C(=O)O)c1
55 to 57	CC(Cl)c1nnc(-c2ccc(Cl)cc2Cl)o1 (centres undefined)
168 to 170	Nc1cccc(-c2n[nH]c3c2CCC3)c1
268 to 270	Cc1c(Cl)cnc(NC(=O)CCl)c1Cl
90 to 92	CNc1ccc([N+](=O)[O-])c(C)c1
170 to 172	NS(=O)(=O)c1cc(F)ccc1Br
79 to 81	CC1CCC(C(C)C)C(NC(=O)c2ccnc(F)c2)C1 (centres undefined)
74 to 76	COc1ccc(F)cc1C(=O)CBr
180 to 182	O=C(O)c1ccc(CS(=O)(=O)c2ccccc2)o1
57 to 59	CC(c1ccccc1)c1ccc(O)cc1 (centres undefined)
269 to 271	NC(=O)c1sc2cc(Cl)ccc2c1Cl
138 to 140	Nc1cccc(-c2nc3ccccc3s2)c1

melting point [°C]	SMILES
154 to 156	Cc1ccc2c(c1)OC(C)C(=O)N2 (centres undefined)
93 to 95	CCOC(=O)c1c(-c2ccc(C)o2)csc1N
204 to 206	CS(=O)(=O)c1cc(C(=O)O)cs1
123 to 125	Sc1nnc(NCC2CCCO2)s1 (centres undefined)
292 to 294	O=c1[nH]cnc2cc(F)c([N+](=O)[O-])cc12
92 to 94	COC(=O)c1ncsc1SCc1ccccc1
144 to 146	Cn1c(CO)nc2ccccc21
57 to 59	O=C(c1ccccc1)C1CCOCC1
168 to 170	CCOC(=O)c1c(N)nn2cc[nH]c12
60 to 62	CC(N)c1cccc(N2CCCS2(=O)=O)c1 (centres undefined)
236 to 238	Cc1c(C(=O)O)oc2c(F)cccc12
51 to 55	ClCc1coc(-c2ccccc2)n1
164 to 166	O=C(O)C1CCN(c2ccccc2Br)C1=O (centres undefined)
195 to 197	CCC(=O)N(c1nnc(S)s1)C1CC1
164 to 166	O=C(O)c1sc(Cl)nc1Cl
200 to 202	O=C(O)Cc1csc(NC(=O)Cc2cccs2)n1
110 to 112	CC1CNc2cccnc2N1 (centres undefined)
173 to 175	CCCCNC(=O)Nc1cccc2c1CCCN2
100 to 102	Cc1cccc(Cc2cnc(N)s2)c1
117 to 119	CN(C)c1ccc(C(N)=S)cc1
79 to 81	Cc1cc(I)ccc1[N+](=O)[O-]
74 to 76	N#Cc1ccc(Cl)cc1NC1CCCC1
64 to 66	N#Cc1ccc(OCC2CO2)cc1 (centres undefined)
161 to 163	Cc1cc(F)cc(C(=O)O)c1[N+](=O)[O-]

melting point [°C]	SMILES
209 to 211	CNS(=O)(=O)c1cccc(C(=O)O)c1
186 to 188	O=C(NC1CCC(O)CC1)C(F)(F)F (centres undefined)
261 to 263	O=C(O)CNC(=O)c1ccc(C(=O)NCC(=O)O)cc1
177 to 179	N#CCc1nc(-c2ccc(C#N)cc2)cs1
229 to 231	NC(=NO)c1cccc(NC(=O)C2CC2)c1
122 to 124	CC(C)Oc1ccc(C(=O)O)cn1
119 to 121	O=[N+]([O-])c1c(Cl)ccc2ncccc12
175 to 177	NS(=O)(=O)c1ccc(NCCC(=O)O)c([N+](=O)[O-])c1
132 to 134	Nc1cccc(CS(=O)(=O)c2ccccc2)c1
120 to 122	CN(Cc1ccccc1)C(=O)NCCC(=O)O
171 to 173	O=C(O)c1ccc(COc2cccc(Br)c2)o1
311 to 313	Nc1ccc(-c2nnc3n2CCC3)cc1
79 to 81	CC(C)(C)NC(=O)C1CCCCN1 (centres undefined)
108 to 110	O=C(O)CCCNC(=O)c1ccc(Cl)cc1
75 to 77	CC(Cl)C(=O)Nc1ccccc1Br (centres undefined)
230 to 232	NC(=O)c1cc(CCO)c(C(F)(F)F)[nH]c1=O
159 to 161	Nc1nnnn1-c1ccccc1
223 to 226	CCN(CC)S(=O)(=O)c1ccc(OC(C)C)c(NC(=O)CCl)c1
183 to 185	CC1(c2ccc(Cl)s2)NC(=O)NC1=O (centres undefined)
87 to 89	O=C(c1ccc(Cl)cc1)c1cccnc1
126 to 128	CC(C)Oc1cc(Br)cc(C(=O)O)c1
290 to 292	O=[N+]([O-])c1[nH]cnc1-c1ccc(F)cc1
69 to 73	COc1ccc(C(=O)c2ccc(OC)cc2OC)cc1
218 to 220	Oc1ccccc1-n1ccnc1

melting point [°C]	SMILES
224 to 226	O=C(O)c1c2c(nc3ccccc13)CCN(Cc1ccccc1)C2
72 to 74	Cc1cc(-c2csc(N)n2)c(C)s1
159 to 161	CCOC(=O)c1cnn2c1NCCC2
122 to 124	NS(=O)(=O)CCc1ccccc1
201 to 203	Cc1c[nH]c(=O)n1-c1cccc([N+](=O)[O-])c1
94 to 96	Cc1cnn(CCC(=O)O)c1
223 to 225	Cc1nc2ccnn2c(C)c1CCC(=O)O
168 to 170	Nc1ccc(CN2C(=O)CNC2=O)cc1
93 to 95	Cc1ccnn1-c1cccc(N)c1
74 to 76	O=C(CCl)NCC1(c2ccccc2)CCCC1
199 to 201	Nc1cc(Cl)c(Cl)c(C(=O)O)c1
135 to 137	Cc1cc(S(=O)(=O)Cl)ccc1OCCCC(=O)O
153 to 155	CC(=NO)c1ccc(OCc2ccccc2C)cc1
146 to 148	CC(=O)N1CCN(c2ccc(CO)cc2)CC1
82 to 84	Cc1cccc(-c2nnc(CO)o2)c1
201 to 203	CC(Sc1ccnc2cc(Cl)ccc12)C(=O)O (centres undefined)
144 to 146	O=C(O)Cc1coc(-c2ccc(F)c(F)c2)n1
92 to 94	CC(C)COC(=O)Nc1cccc(N)c1
99 to 101	NC(=O)C1(c2cccc(Cl)c2)CC1
288 to 290	Cn1c(C(=O)O)cc2c(=O)n3ccccc3nc21
67 to 69	Cc1cnc(C#N)nc1
145 to 147	CC(=O)N1CCC(C(=O)O)C1 (centres undefined)
89 to 91	CCN(CC)S(=O)(=O)c1ccc(OC(C)C)c(N)c1
275 to 277	COC(=O)c1ccc2c(c1)S(=O)(=O)N=C(C)N2

melting point [°C]	SMILES
212 to 214	O=C(O)CCC1NC(=O)N(c2ccc(Cl)cc2)C1=O (centres undefined)
154 to 156	Oc1ccc(C2SCCCS2)cc1
111 to 113	O=C(O)c1cc(S(=O)(=O)Cl)cc(F)c1F
126 to 128	O=C(O)CCC(=O)c1ccc(S(=O)(=O)Cl)cc1
52 to 54	CC(=O)c1ccoc1
179 to 181	O=C(O)c1ccc(Sc2ccccn2)cc1
139 to 141	O=C(NC1CCCC1)c1ccc(Cl)nn1
50 to 52	NC1CCN(C2CCOCC2)C1=O (centres undefined)
101 to 103	CN(CC(=O)O)C1CC1
171 to 173	Cc1cc(N)n(-c2cc(Cl)ncn2)n1
80 to 82	Cc1noc(C2(C)CCN(C(=O)OC(C)(C)C)CC2)n1
93 to 95	NC(=O)C(N)Cc1ccccc1 (centres undefined)
70 to 72	Fc1cccc(NC2CCOCC2)c1
115 to 117	COC(=O)C[C@H](NC(=O)OCC1c2ccccc2-c2ccccc21)C(=O)O
65 to 67	CN(C)c1ccc(C=O)s1
224 to 226	O=C(O)c1cccc(NC(=O)c2ccco2)c1
98 to 100	Clc1ccc(NCc2cccnc2)cc1
97 to 99	Fc1ccc2ccc(Cl)nc2c1
< 17	CCOc1ccc(C2CCCN2)cc1 (centres undefined)

SMILES	melting point [°C]
O=C(CCl)c1ccc(F)c(F)c1	37 to 39
COc1ccc2c(c1)c(C(=O)O)c(C)n2C1CC1	199 to 201
O=c1[nH]c(CCl)nc2sccc12	209 to 211
Nc1ccc(CCN2CCSCC2)cc1	88 to 90
c1cc(C2CCNCC2)[nH]n1	146 to 148
